According to patent US8299048B2, “Hexahydrocyclopentyl[f]indazole sulfonamides and derivatives thereof as selective glucocorticoid receptor modulators” (Merck Sharp & Dohme Corp., priority 2008, dated 2012):

These compounds were tested against T1, glucocorticoid receptor (Homo sapiens, UniProt P04150) (assay: Ligand binding assay (GR BIND)).
T1 construct: endogenous in cells
T1 sequence (P04150 1-777): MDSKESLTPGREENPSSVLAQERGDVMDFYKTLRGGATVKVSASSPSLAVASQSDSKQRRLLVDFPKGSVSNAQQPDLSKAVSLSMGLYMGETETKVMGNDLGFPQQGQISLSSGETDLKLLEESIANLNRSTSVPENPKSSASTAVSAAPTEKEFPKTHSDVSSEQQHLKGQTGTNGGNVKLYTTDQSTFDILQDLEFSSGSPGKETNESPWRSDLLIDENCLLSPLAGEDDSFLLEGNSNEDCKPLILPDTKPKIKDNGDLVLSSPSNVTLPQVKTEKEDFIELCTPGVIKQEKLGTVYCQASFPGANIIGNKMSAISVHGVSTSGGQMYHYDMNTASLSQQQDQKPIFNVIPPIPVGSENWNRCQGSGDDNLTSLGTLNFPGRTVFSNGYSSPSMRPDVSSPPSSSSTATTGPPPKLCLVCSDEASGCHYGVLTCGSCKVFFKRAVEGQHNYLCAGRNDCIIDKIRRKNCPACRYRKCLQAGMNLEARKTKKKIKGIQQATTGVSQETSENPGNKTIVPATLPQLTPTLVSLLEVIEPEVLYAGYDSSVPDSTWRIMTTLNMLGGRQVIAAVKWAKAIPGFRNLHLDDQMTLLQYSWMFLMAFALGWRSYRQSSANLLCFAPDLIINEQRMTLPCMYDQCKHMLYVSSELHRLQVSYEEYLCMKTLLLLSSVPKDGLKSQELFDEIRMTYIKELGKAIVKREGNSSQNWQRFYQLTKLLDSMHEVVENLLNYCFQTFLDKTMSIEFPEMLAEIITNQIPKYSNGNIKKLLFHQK
Outline: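 Displacement of tritiated dexamethasone (6 nM trace solution) from receptor in cell supernatant was measured after overnight incubation at 4 °C in molybdate-containing TEGM, pH 7.2, 2% ethanol. Hydroxylapatite pulled down the receptor–ligand complex for filter washing and scintillation counting, with dexamethasone as reference.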

Structure (SMILES) | Ki
C[C@]12Cc3cnn(-c4ccc(F)cc4)c3C=C1CC[C@@H]2CN(CCO)S(=O)(=O)c1ccc(F)c(Cl)c1 [Example 19, 3-chloro-4-fluoro-N-{[(4αR,5S)-1-(4-fluorophenyl)-4α-methyl-1,4,4α,5,6,7-hexahydrocyclopenta[f]indazol-5-yl]methyl}-N-(2-hydroxyethyl)benzenesulfonamide] | 4 nM
Cc1oncc1S(=O)(=O)N(CC#N)C[C@H]1CCC2=Cc3c(cnn3-c3ccc(F)cc3)C[C@@]21C [Example 23, N-(cyanomethyl)-N-{[(4αR,5S)-1-(4-fluorophenyl)-4α-methyl-1,4,4α,5,6,7-hexahydrocyclopenta[f]indazol-5-yl]methyl}-5-methylisoxazole-4-sulfonamide] | 4.9 nM
C[C@]12Cc3cnn(-c4ccc(F)cc4)c3C=C1CC[C@@H]2CN(CC#N)S(=O)(=O)c1cc(Cl)c(Cl)s1 [Example 24, 4,5-dichloro-N-(cyanomethyl)-N-{[(4αR,5S)-1-(4-fluorophenyl)-4α-methyl-1,4,4α,5,6,7-hexahydrocyclopenta[f]indazol-5-yl]methyl}thiophene-2-sulfonamide] | 5.3 nM
C[C@]12Cc3cnn(-c4ccc(F)cc4)c3C=C1CC[C@@H]2CN(CC#N)S(=O)(=O)c1cccc(Cl)c1Cl [Example 26, 2,3-dichloro-N-(cyanomethyl)-N-{[(4αR,5S)-1-(4-fluorophenyl)-4α-methyl-1,4,4α,5,6,7-hexahydrocyclopenta[f]indazol-5-yl]methyl}benzenesulfonamide] | 9.7 nM
C[C@]12Cc3cnn(-c4ccc(F)cc4)c3C=C1CC[C@@H]2CN(CC#N)S(=O)(=O)c1ccc(Cl)c(C(F)(F)F)c1 [Example 27, 4-chloro-N-(cyanomethyl)-N-{[(4αR,5S)-1-(4-fluorophenyl)-4α-methyl-1,4,4α,5,6,7-hexahydrocyclopenta[f]indazol-5-yl]methyl}-3-(trifluoromethyl)benzenesulfonamide] | 8.8 nM
Cc1cc(S(=O)(=O)N(CC#N)C[C@H]2CCC3=Cc4c(cnn4-c4ccc(F)cc4)C[C@@]32C)c(C)cc1Cl [Example 29, 4-chloro-N-(cyanomethyl)-N-{[(4αR,5S)-1-(4-fluorophenyl)-4α-methyl-1,4,4α,5,6,7-hexahydrocyclopenta[f]indazol-5-yl]methyl}-2,5-dimethylbenzenesulfonamide] | 8.4 nM
C[C@]12Cc3cnn(-c4ccc(F)cc4)c3C=C1CC[C@@H]2CN(CC#N)S(=O)(=O)Cc1cccc(C(F)(F)F)c1 [Example 30, N-(cyanomethyl)-N-{[(4αR,5S)-1-(4-fluorophenyl}-4α-methyl-1,4,4α,5,6,7-hexahydrocyclopenta[f]indazol-5-yl]methyl}-1-[3-(trifluoromethyl)phenyl]methanesulfonamide] | 7.6 nM
Cc1ccc(S(=O)(=O)N(CC#N)C[C@H]2CCC3=Cc4c(cnn4-c4ccc(F)cc4)C[C@@]32C)s1 [Example 31, N-(cyanomethyl)-N-{[(4αR,5S)-1-(4-fluorophenyl}-4α-methyl-1,4,4α,5,6,7-hexahydrocyclopenta[f]indazol-5-yl]methyl}-5-methylthiophene-2-sulfonamide] | 6.1 nM
Cn1cc(S(=O)(=O)N(CC#N)C[C@H]2CCC3=Cc4c(cnn4-c4ccc(F)cc4)C[C@@]32C)c(C(F)(F)F)n1 [Example 32, N-(cyanomethyl)-N-{[(4αR,5S)-1-(4-fluorophenyl}-4α-methyl-1,4,4α,5,6,7-hexahydrocyclopenta[f]indazol-5-yl]methyl}-1-methyl-3-(trifluoromethyl)-1H-pyrazole-4-sulfonamide] | 3.9 nM
Cc1cc(S(=O)(=O)N(CC#N)C[C@H]2CCC3=Cc4c(cnn4-c4ccc(F)cc4)C[C@@]32C)c(C)o1 [Example 33, (4αR,5S)-5-({(cyanomethyl)[(2,5-dimethyl-3-furyl)sulfonyl]amino}methyl)-1-(4-fluorophenyl)-4α-methyl-1,4,4α,5,6,7-hexahydrocyclopenta[f]indazol-2-ium] | 8.8 nM
Cn1nc(C(F)(F)F)cc1-c1ccc(S(=O)(=O)N(CC#N)C[C@H]2CCC3=Cc4c(cnn4-c4ccc(F)cc4)C[C@@]32C)s1 [Example 35] | 5.1 nM

Stronger by Ki, values ahead:

Ki | Structure (SMILES)
0.6 nM | C[C@]12Cc3cnn(-c4ccc(F)cc4)c3C=C1CC[C@@H]2CN(CC1CC1)S(=O)(=O)/C=C/c1ccccc1 [Example 13, (E)-N-(cyclopropylmethyl)-N-{[(4αR,5S)-1-(4-fluorophenyl)-4α-methyl-1,4,4α,5,6,7-hexahydrocyclopenta[f]indazol-5-yl]methyl}-2-phenylethylenesulfonamide]
1.6 nM | CNC(=O)Nc1ccc(S(=O)(=O)N(CC2CC2)C[C@H]2CCC3=Cc4c(cnn4-c4ccc(F)cc4)C[C@@]32C)c(Cl)c1 [Example 14, 2-chloro-N-(cyclopropylmethyl)-N-{[(4αR,5S)-1-(4-fluorophenyl)-4α-methyl-1,4,4α,5,6,7-hexahydrocyclopenta[f]indazol-5-yl]methyl}-4-{[(methylamino)carbonyl]amino}-benzenesulfonamide]
1.8 nM | C[C@]12Cc3cnn(-c4ccc(F)cc4)c3C=C1CC[C@@H]2CN(CC1CC1)S(=O)(=O)c1ccc(F)c(Cl)c1 [Example 15, 3-chloro-N-(cyclopropylmethyl)-4-fluoro-N-{[(4αR,5S)-1-(4-fluorophenyl)-4α-methyl-1,4,4α,5,6,7-hexahydrocyclopenta[f]indazol-5-yl]methyl}benzenesulfonamide]
3 nM | C[C@]12Cc3cnn(-c4ccc(F)cc4)c3C=C1CC[C@@H]2CN(CCC#N)S(=O)(=O)c1ccccc1F [Example 16, N-(2-cyanoethyl)-2-fluoro-N-{[(4αR,5S)-1-(4-fluorophenyl)-4α-methyl-1,4,4α,5,6,7-hexahydrocyclopenta[f]indazol-5-yl]methyl}benzenesulfonamide]
2.1 nM | C[C@]12Cc3cnn(-c4ccc(F)cc4)c3C=C1CC[C@@H]2CN(CCO)S(=O)(=O)c1ccccc1F [Example 17, 2-fluoro-N-{[(4αR,5S)-1-(4-fluorophenyl)-4α-methyl-1,4,4α,5,6,7-hexahydrocyclopenta[f]indazol-5-yl]methyl}-N-(2-hydroxyethyl)benzenesulfonamide]
0.8 nM | COC(=O)c1ccccc1S(=O)(=O)N(CC1CC1)C[C@H]1CCC2=Cc3c(cnn3-c3ccc(F)cc3)C[C@@]21C [Example 18, methyl 2-[((cyclopropylmethyl){[(4αR,5S)-1-(4-fluorophenyl)-4α-methyl-1,4,4α,5,6,7-hexahydrocyclopenta[f]indazol-5 yl]methyl}amino)sulfonyl]benzoate]
2.2 nM | C[C@]12Cc3cnn(-c4ccc(F)cc4)c3C=C1CC[C@@H]2CN(CC#N)S(=O)(=O)c1ccc(F)c(Cl)c1 [Example 20, 3-chloro-N-(cyanomethyl)-4-fluoro-N-{[(4αR,5S)-1-(4-fluorophenyl)-4α-methyl-1,4,4α,5,6,7-hexahydrocyclopenta[f]indazol-5-yl]methyl}benzenesulfonamide]
3 nM | C[C@]12Cc3cnn(-c4ccc(F)cc4)c3C=C1CC[C@@H]2CN(CC1CC1)S(=O)(=O)Cc1ccccc1 [Example 21, N-(cyclopropylmethyl)-N-{[(4αR,5S)-1-(4-fluorophenyl)-4α-methyl-1,4,4α,5,6,7-hexahydrocyclopenta[f]indazol-5-yl]methyl}-1-phenylmethanesulfonamide]
2.5 nM | C[C@]12Cc3cnn(-c4ccc(F)cc4)c3C=C1CC[C@@H]2CN(CC#N)S(=O)(=O)c1ccc(F)c(F)c1 [Example 25, N-(cyanomethyl)-3,4-difluoro-N-{[(4αR,5S)-1-(4-fluorophenyl)-4α-methyl-1,4,4α,5,6,7-hexahydrocyclopenta[f]indazol-5-yl]methyl}benzenesulfonamide]
2.3 nM | C[C@]12Cc3cnn(-c4ccc(F)cc4)c3C=C1CC[C@@H]2CN(CC#N)S(=O)(=O)c1ccc(C#N)cc1 [Example 28, 4-cyano-N-(cyanomethyl)-N-{[(4αR,5S)-1-(4-fluorophenyl)-4α-methyl-1,4,4α,5,6,7-hexahydrocyclopenta[f]indazol-5-yl]methyl}benzenesulfonamide]
1.7 nM | COC(=O)c1sccc1S(=O)(=O)N(CC#N)C[C@H]1CCC2=Cc3c(cnn3-c3ccc(F)cc3)C[C@@]21C [Example 34, methyl 3-[((cyanomethyl){[(4αR,5S)-1-(4-fluorophenyl)-4α-methyl-1,4,4α,5,6,7-hexahydrocyclopenta[f]indazol-5-yl]methyl}amino)sulfonyl]thiophene-2-carboxylate]
2.5 nM | C[C@]12Cc3cnn(-c4ccc(F)cc4)c3C=C1CC[C@@H]2CN(CC#N)S(=O)(=O)c1cccc(C#N)c1 [Example 36, 3-cyano-N-(cyanomethyl)-N-{[(4αR,5S)-1-(4-fluorophenyl)-4α-methyl-1,4,4α,5,6,7-hexahydrocyclopenta[f]indazol-5-yl]methyl}benzenesulfonamide]
